This note sets out measurements from publication PMC9406419, “OATD-02 Validates the Benefits of Pharmacological Inhibition of Arginase 1 and 2 in Cancer” (Cancers, 2022).

Molecules are shown by their SMILES.

The test system of one data set is K562 cells. The experiment in a line: Long-term culture of OATD-02-treated K562 cells (viable cell count, propidium iodide). Format: cell-based, human. The following applies: different concentrations, 14 days, medium not replaced. As to the method:
CT26.WT (CRL-2638, CT26, mouse colon carcinoma) and K562 (CCL-243, human CML) cell lines were purchased from the ATCC®. Adherent CT26 and non-adherent K562 cells were maintained in the RPMI-1640 medium (Gibco, Life Technologies, Carlsbad, CA, USA) supplemented with 10% foetal bovine serum (FBS, #10270106, ThermoFisher/Gibco™) and 100 U/mL penicillin G and 100 µg/mL streptomycin (Antibiotic-Antimycotic, #15240062, Gibco®) at 37 °C in a humidified 5% CO2 atmosphere. Full-grown monolayers of CT26 cells were trypsinized for 15 min (0.25% Gibco® Trypsin-EDTA), harvested, and passaged several times for expansion. Both cell lines were confirmed at the last used passage to be mycoplasma-free (Mycoalert Detection Kit, Lonza, Basel, Switzerland). The Renca (murine renal adenocarcinoma) cell line was maintained for the in vivo study conducted at Crown Biosciences (Beijing, China). A monolayer culture was grown in DMEM medium supplemented with 10% FBS at 37 °C and 5% CO2. The cells were harvested in exponential growth phase and used for inoculation. […] To assess the antiproliferative effects of OATD-02, the culture medium has not been replaced during this period and the cell density/viability (propidium iodide staining) was determined daily. […]

For another data set, the system named is K562 tumours. In words: K562 xenograft model in T and NK cell-deficient Fox Chase SCID Beige mice. Format: in vivo, mouse. Conditions: 50 mg/kg PO BID from day 7, day 19. Here is the method:
(§1) CT26 and K562 in vivo experiments were conducted at Molecure SA. All experimental procedures were approved by the 1st Local Ethics Committee in Warsaw (Poland). For the syngeneic CT26 model, 7–8-week old BALB/c females (n = 9–18 per group, BALB/cAnNCrl, Charles River Laboratories) were injected subcutaneously in the right flank with 5 × 10^5 CT26 cells. […] Anti-PD-L1 antibody (InVivoPlus anti-mouse PD-L1, clone 10F.9G2, BioXCell, lot 615416D1) was injected intraperitoneally at 2.5 mg/kg on days: 8, 10, 12, 14 and 16 post tumour cells inoculation. Control groups received vehicle (saline) or isotype antibody (InVivoPlus rat IgG2b, anti-KLH, BioXCell, lot 629816D1). For the xenograft K562 model, 7–8 week-old athymic nude mice (n = 8–11 per group, Crl:NU(NCr)-Foxn1^nu, Charles River Laboratories) or NK cell-deficient Fox Chase SCID Beige mice (n = 10–12 per group, CB17.Cg-Prkdc^scidLyst^bg-J/Crl, Charles River Laboratories) were injected subcutaneously in the right flank with 1 × 10^7 K562 cells. […] Tumour volume measured by a digital calliper (width × length × depth × π/6) was recorded three times per week. Animals were euthanized when tumours were necrotized or volume exceeded 2000 mm^3. Renca in vivo efficacy study was performed at Crown Biosciences Inc. (Taicang, China). […] Tumour volumes (length × width^2 × 0.5) were measured twice per week. […]

A short description of data set [1]: Tolerability in animal models. Format: in vivo.
A further data set deals with T1, recombinant human ARG1 (Homo sapiens, UniProt P05089).
T1 construct: made in house; host or cells: E. coli
T1 sequence (P05089 1-322): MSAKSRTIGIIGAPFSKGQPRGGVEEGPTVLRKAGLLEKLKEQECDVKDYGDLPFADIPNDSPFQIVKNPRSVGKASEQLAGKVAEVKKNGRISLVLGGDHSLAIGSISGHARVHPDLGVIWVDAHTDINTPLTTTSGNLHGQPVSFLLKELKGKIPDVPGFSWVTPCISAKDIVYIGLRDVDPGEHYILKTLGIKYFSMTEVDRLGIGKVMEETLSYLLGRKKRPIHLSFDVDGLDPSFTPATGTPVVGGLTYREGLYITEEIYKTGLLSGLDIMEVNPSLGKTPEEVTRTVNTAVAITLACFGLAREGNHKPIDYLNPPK
In words: Recombinant arginase inhibition assay (colorimetric urea detection), ARG1. It is filed as biochemical. Conditions: recombinant human ARG1, 10 mM L-arginine, 37 °C, 1 h, pH 7.4.

The next data set relates to CT26 tumours. The experiment in a line: Syngeneic CT26 model, combination with epacadostat and anti-PD-L1 antibody. Conditions: suboptimal doses: OATD-02 50 mg/kg PO BID; epacadostat 30 mg/kg PO BID; anti-PD-L1 2.5 mg/kg IP days 8, 10, 12, 14, 16. Format: in vivo, mouse. Here is the method: as §1

Experimental for recombinant human ARG1: The enzymatic reaction was carried out at 37 °C for 1 h in the assay buffer (100 mM sodium phosphate buffer, 130 mM NaCl, pH 7.4) with the addition of 1 mg/mL BSA in the presence of 200 µM MnCl2 (enzyme cofactor), 10 mM (for ARG1) or 20 mM (for ARG2) of L-arginine hydrochloride (enzyme substrate), and serial dilutions of the test compounds. The inhibition of the arginase activity was determined by colorimetric detection of produced urea, as previously described [29] with minor changes. Briefly, 150 µL of freshly prepared developing reagent (2 mM o-phthaldialdehyde (OPA), 2 mM N-(1-naphthyl)ethylenediamine dihydrochloride (NED), 50 mM boric acid, 1 M sulfuric acid, 0.03% Brij-35) was added to each well, incubated for 20 min at RT, then the absorbance at 515 nm was measured. Normalized values were fitted to a four-parameter equation using GraphPad Prism and IC50 values were determined.

The term IC50 denotes the point on the concentration scale where inhibition reaches its midpoint. Regarding `CN(C)C[C@@H]1CC[C@@H](CCB(O)O)C[C@]1(N)C(=O)O` [OATD-02], the “survival of K562 cells in long-term culture” value in the data set with K562 cells is given as “dying faster in a dose-dependent manner”. In the data set on K562 tumours, the “final TGI, K562 tumor volumes, Fox Chase SCID Beige mice” value was 47%. Moreover, the safety and tolerability entry in data set [1] is “safe and well tolerated”. Moreover, on recombinant human ARG1, the half-maximal inhibitory concentration (IC50) was 17 nM. In addition, in the data set on CT26 tumours, the “TGI, CT26 tumor growth inhibition - day 24” value is 33%.
